Experiments:
B16F10 cells [1] = assay: Western blot of protein expression in B16F10 cells; assay type: cell-based, Mouse
Description: Proteins were analyzed by SDS-PAGE and transferred on PVDF membranes (Sigma, France). The antibodies used were as follow: beta-actin (ab8226), MITF (ab12039) and Tyrosinase (ab738) from Abcam, Rab27a (#69295) and HSP90 (#4874) from Cell Signaling Technologies, SLC7A5 (sc-374232) and TYRPI (sc-166857) from Santa Cruz. Signals were detected with horseradish peroxidase conjugated secondary antibodies using ECL detection kit and quantified by digital imaging (Fuji LAS4000).

tyrosinase [2] = target: T1, tyrosinase (Mus musculus, UniProt P11344); assay: Tyrosinase (L-DOPA) activity after treatment of B16F10 cells; assay type: cell-based; design: endogenous in cells; host or cells: B16F10 melanoma cells; conditions: B16F10 cells treated at 10 mM
T1 sequence (P11344 19-533): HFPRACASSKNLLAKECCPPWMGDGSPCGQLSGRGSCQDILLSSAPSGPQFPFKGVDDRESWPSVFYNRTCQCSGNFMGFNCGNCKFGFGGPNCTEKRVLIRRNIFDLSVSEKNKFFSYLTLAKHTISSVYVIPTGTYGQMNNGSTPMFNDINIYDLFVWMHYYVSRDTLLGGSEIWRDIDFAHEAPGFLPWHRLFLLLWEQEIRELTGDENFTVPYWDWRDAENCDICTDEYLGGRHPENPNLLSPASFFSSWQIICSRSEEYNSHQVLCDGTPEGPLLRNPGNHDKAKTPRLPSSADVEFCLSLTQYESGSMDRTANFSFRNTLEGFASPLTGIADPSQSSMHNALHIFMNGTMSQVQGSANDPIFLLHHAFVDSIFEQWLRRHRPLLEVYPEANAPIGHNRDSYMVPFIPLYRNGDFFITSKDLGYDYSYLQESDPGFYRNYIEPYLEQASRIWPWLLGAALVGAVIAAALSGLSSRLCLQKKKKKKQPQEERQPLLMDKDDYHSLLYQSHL
Description: (§1) Proteins were resuspended in 0.1M Sodium Phosphate pH 6.8, supplemented with 5 mM L-DOPA. After incubation for 1 hour at 37° C., optical density was read at 475 nm.

[3] = system: normal human melanocytes (NHM); assay: Melanin production in normal human melanocytes; assay type: cell-based; conditions: pigmented normal human melanocytes
Description: (§2) Mouse B16F10 and Human 501Mel melanoma cells were cultured in Dulbecco's modified Eagle's medium (DMEM) supplemented with 7% Fetal Bovine Serum and 1% Penicillin/Streptomycin. Human MNT1 melanoma cells were cultured as described (Yasumoto et al., 2004). Normal Human Melanocytes were isolated from foreskin obtained after phimosis surgery. Patient consent was not required because French laws consider tissue left over from postectomy as discarded material. Melanocytes were cultured in MCDB medium as described (Bonet et al., 2017). Cells were tested every 4 weeks for mycobacterial presence. […] Cells were detached with 0.05% Trypsin-EDTA solution (Thermo Scientific, France) and solubilized in NaOH 0.5N. Optical density was measured at 405 nm using melanin standard as a reference. Melanin content was normalized to the protein content.

[4] = system: MNT1 human melanoma cells; assay: Melanin production in MNT1 human melanoma cells; assay type: cell-based
Description: as §2

tyrosinase [5] = target: T1, tyrosinase; assay: DOPA oxidase assay, agent added directly in cell lysates; assay type: biochemical; design: when added directly in cell lysates during the DOPA oxidase assay; endogenous in cells; B16F10 by context); conditions: during the DOPA oxidase assay
Description: as §1

[6] = system: Phototype VI Reconstructed Human Pigmented Epidermis
Description: Phototype VI Reconstructed Human Pigmented Epidermis (Sterlab, France) were treated with BCH or vehicle for 7 days. 10 μm cryosections were used to visualize melanin using Fontana-Masson stain kit (Interchim, France). Images were taken with a Nikon microscope and a 20× lens. Melanin content was quantified after solubilization of epidermis in Solvable® solution (PerkinElmer, France), and melanin content was quantified as described above.

B16F10 cells [7] = assay: Melanin content in B16F10 cells; assay type: cell-based, Mouse
Description: as §2, with “Cells were transfected with 50 nM siRNAs to SLC7A5, MITF or control siRNAs (ON-TARGETplus, Dharmacon) using HiPerfect transfection reagent (Qiagen, France). When indicated, Forskolin (20 μM) and IBMX (100 μM) were added to induce pigmentation on B16F10 cells. 48 hours later, medium was removed, and cells were used for western blot, quantitative PCR, melanin content analyses, immunofluorescence or brightfield imaging. Cells were detached with” for “Cells were detached with”

B16F10 cells [8] = assay: Cell viability / proliferation of B16F10 cells (CellTiter Aqueous One); assay type: cell-based, Mouse
Description: as §2, with “Cell viability was evaluated using CellTiter Aqueous One Solution Cell Proliferation Assay (Promega,” for “Cells were detached with 0.05% Trypsin-EDTA solution (Thermo Scientific,”, “France)” for “France) and solubilized in NaOH 0.5N. Optical density was measured at 405 nm using melanin standard”, “recommended by” for “a reference. Melanin content was normalized to”, “supplier.” for “protein content.”

tyrosinase activity after treatment of cells (tyrosinase [2])	tyrosinase activity, added directly in cell lysates (tyrosinase [5])	Compound	Slc7a5 expression (B16F10 cells [1]; Western blot, B16F10 cells)	Tyrosinase or Rab27a expression (B16F10 cells [1]; Western blot, B16F10 cells)	Tyrp1 expression (B16F10 cells [1]; Western blot, B16F10 cells)	conversion of LC3-I to LC3-II (autophagy) (B16F10 cells [1]; at 5 and 10 mM)	melanin production [3]	melanin production [4]	epidermis structure and keratinisation [6]	melanin content of reconstructed epidermis ([6]; treated for 7 days)	pigmentation of reconstructed epidermis (macroscopic, bright field images) ([6]; treated for 7 days)	pigmented melanocytes in epidermis sections (Fontana Masson staining) ([6]; treated for 7 days)	inhibition of melanin production (B16F10 cells [7]; B16F10 cells, BCH at 5 mM) [%]	inhibition of melanin production (B16F10 cells [7]; B16F10 cells, BCH at 10 mM) [%]	cell proliferation (B16F10 cells [8]; doses of Kojic acid that inhibit melanogenesis)	inhibition at 1000 µM (B16F10 cells [7]; Mus musculus, B16-F10) [%]	cell proliferation (B16F10 cells [8]; JPH203 at 10 and 50 μM)	inhibition of pigmentation (melanin content) (B16F10 cells [7]; B16F10 cells, JPH203 at 10 and 50 μM, FIG. 2)
did not	does not inhibit tyrosinase activity	NC1(C(=O)O)CC2CCC1C2 (stereo not shown) [BCH]	did not affect Slc7a5 expression	not affected consistently	dose-dependent increase	induced a conversion of LC3-I to LC3-II	significantly decreased melanin production	significantly decreased melanin production	without affecting epidermis structure or keratinisation	statistically significant decrease in melanin content	inhibited pigmentation	absence of pigmented melanocytes	25	60				
		O=c1cc(CO)occ1O [Kojic Acid]													did not affect cell proliferation	60		
		Nc1cc(COc2c(Cl)cc(C[C@H](N)C(=O)O)cc2Cl)c2oc(-c3ccccc3)nc2c1 [JPH203, O-[(5-amino-2-phenyl-7-benzoxazolyl)methyl]-3,5-dichloro-L-tyrosine]									strong inhibition of pigmentation						did not inhibit cell proliferation	efficiently inhibited pigmentation

Source: patent US20240197603A1, “METHODS AND COMPOSITIONS FOR TREATING HYPERPIGMENTATION DISORDERS” (INSERM (INSTITUT NATIONAL DE LA SANTÉ ET DE LA RECHERCHE …, priority 2021, published 2024)
